One data set in a line: dissolution rate. It counts as physicochemical. To be noted: compared to the free form.
A short description of data set [1]: pH of a 1% solution/suspension in water. It counts as physicochemical. Particulars: 10 mg salt in 1 mL water, ultrasound about 5 min, stirred one hour at RT, batch B, 24.3-25.2° C. How it is done: A mixture of 10 mg salt and 1 mL water was treated about 5 min with ultrasound. Afterwards, the mixture was stirred for one hour at RT followed by pH measurement.

Data set [2] is described as follows: stability (physical stability, stability under light). It counts as physicochemical. Particulars: for stability: free form, under light.
Another data set in a line: solubility. Particulars: free form, in water. It counts as physicochemical.
The target of another data set is β2-adrenoceptor (Homo sapiens, UniProt P07550). To be noted: cited from earlier work.
Sequence of β2-adrenoceptor (P07550 whole entry, species assumed): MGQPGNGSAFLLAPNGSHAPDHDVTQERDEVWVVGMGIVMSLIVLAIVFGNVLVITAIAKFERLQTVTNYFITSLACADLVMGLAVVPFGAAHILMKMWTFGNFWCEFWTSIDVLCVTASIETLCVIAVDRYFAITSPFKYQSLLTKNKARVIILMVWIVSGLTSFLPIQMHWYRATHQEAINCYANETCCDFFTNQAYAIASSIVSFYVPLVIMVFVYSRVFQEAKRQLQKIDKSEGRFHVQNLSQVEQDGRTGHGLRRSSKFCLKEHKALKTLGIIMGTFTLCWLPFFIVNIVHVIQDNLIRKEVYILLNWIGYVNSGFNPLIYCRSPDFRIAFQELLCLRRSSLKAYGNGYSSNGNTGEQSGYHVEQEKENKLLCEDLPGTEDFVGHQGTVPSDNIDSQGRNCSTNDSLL
The next data set deals with rats. To be noted: cited from earlier work.
The next data set has as its system former smokers. To be noted: oral; cited from earlier work.
Data set [3] relates to human airway epithelial cells. To be noted: human airway epithelial cells in vitro; cited from earlier work.
The mark [4] stands for this setting: listed as free form of 7-(2,3-di-p-tolyl-7,8-dihydropyrido[2,3-b]pyrazin-5(6H)-yl)heptanoi.

Counter-ions that a name gives are not always drawn.

Turning to `CS(=O)(=O)O.Cc1ccc(-c2nc3c(nc2-c2ccc(C)cc2)N(CCCCCCC(=O)O)CCC3)cc1` [mesylate salt of 7-(2,3-di-p-tolyl-7,8-dihydropyrido[2,3-b]pyrazin-5(6H)-yl)heptanoic acid], the dissolution rate result in “dissolution rate” is “significantly higher dissolution rate compared to the free form”. Regarding `Cc1ccc(-c2nc3c(nc2-c2ccc(C)cc2)N(CCCCCCC(=O)O)CCC3)cc1` [Example 4, 7-(2,3-di-p-tolyl-7,8-dihydropyrido[2,3-b]pyrazin-5(6H)-yl)heptanoate hydrochloride], the “pH of a 1% solution/suspension in water” value in data set [1] (hydrochloride) worked out at 2.3. With `Cc1ccc(-c2nc3c(nc2-c2ccc(C)cc2)N(CCCCCCC(=O)O)CCC3)cc1` [7-(2,3-di-p-tolyl-7,8-dihydropyrido[2,3-b]pyrazin-5(6H)-yl)heptanoic acid], the stability result was “low stability under light” in data set [2]; “poor solubility and stability” in data set [2] (setting [4]). Further, the solubility result in “solubility” is “poorly soluble in water”; in the data set “solubility” (setting [4]), “poor solubility”.

Regarding `Cc1ccc(-c2nc3c(nc2-c2ccc(C)cc2)N(CCCCCCC(=O)[O-])CCC3)cc1.[Na+]` [Example 3, 7-(2,3-di-p-tolyl-7,8-dihydropyrido[2,3-b]pyrazin-5(6H)-yl)heptanoate sodium], the physical stability entry in data set [2] was “good”. In the case of `CCc1cc2c(cc1CC)CC(NC[C@H](O)c1ccc(O)c3[nH]c(=O)ccc13)C2` [indacaterol, (R)-5-[2-(5,6-diethyl-indan-2-ylamino)-1-hydroxyethyl]-8-hydroxy-1H-quinolin-2-one], at β2-adrenoceptor, the duration of action entry was “over 24 hours” and the onset of action entry is on record as “about 10 minutes”. With `Cc1ccc(-c2nc3c(nc2-c2ccc(C)cc2)N(CCCCCCC(=O)O)CCC3)cc1` [Example 2, 7-(2,3-di-p-tolyl-7,8-dihydropyrido[2,3-b]pyrazin-5(6H)-yl)heptanoate xinafoate], the “pH of a 1% solution/suspension in water” value in data set [1] was 6.46. In data set [2], the photostability entry is recorded as “good”. As to `Cc1ccc(-c2nc3c(nc2-c2ccc(C)cc2)N(CCCCCCC(=O)O)CCC3)cc1` [Example 1, 7-(2,3-di-p-tolyl-7,8-dihydropyrido[2,3-b]pyrazin-5(6H)-yl)heptanoate sulfate], the “pH of a 1% solution/suspension in water” value in data set [1] (sulfate) turned out to be 1.78. Further, the physical stability entry in data set [2] is reported as “good”.

`CC#CCC(C)[C@H](O)/C=C/[C@@H]1[C@H]2c3cccc(CCCC(=O)O)c3O[C@H]2C[C@H]1O` (mixture of isomers) [Beraprost]: the “development of experimental cigarette smoke-induced emphysema” value in the data set with rats is on record as “protected”. On to `CC#CCC(C)[C@H](O)/C=C/[C@@H]1[C@H]2C/C(=C/CCCC(=O)O)C[C@H]2C[C@H]1O` (stereo partly shown) [iloprost], for which, in the data set on former smokers, the endobronchial dysplasia result is on record as “significantly improved”. As to `O=C(O)c1cccc(/C=C2/C[C@@H]3[C@@H](/C=C/[C@@H](O)C4CCCCC4)[C@H](O)C[C@@H]3O2)c1` [Taprostene], the “generation of the CD8+ T cell chemoattractants CXCL9 and CXCL10” value in data set [3] is “suppressed”.
